Measured values from article PMC5617480 (Oncotarget, 2017).
Read-outs that look alike come from different tables or passages of the source.

Legend:
BEL-7404 xenograft = settings: for Body weight (start) / Tumor volume (start) / Average tumor weight (mean ± SD g) / Body weight (end) / RBW (%) (end) / Tumor volume (end): BEL-7404 model; for Average tumor weight (mean ± SD g) / Body weight (end) / RBW (%) (end) / Tumor volume (end): day 18
Method: In vivo anticancer efficacy of chiral platinum(II) complex 6 was evaluated using BEL-7404 and BEL-7402 xenograft mouse models. BEL-7404 and BEL-7402 cells were injected into nude mice. The mice were randomized into the control group, complex 6-treated group, and the positive control group (n = 6/group). When the volume of tumor was about 80 mm^3, complex 6 was given at a high (8 mg/kg) and low (4 mg/kg) dosage daily for 18 days, 5-FU (20 mg/kg every two days) and Cisplatin (2 mg/kg every two days) were used as a positive control in the BEL-7404 and BEL-7402 xenograft model, respectively.
To evaluate the vivo anticancer efficacy of complex 6, BEL-7404 and BEL-7402 xenograft mouse models (BALB/c nude mice, female for BEL-7404 model, 17–20 g, 6–7 weeks old; male for BEL-7402 model, 18-21 g, 6–7 weeks old) were used. Furthermore, animal used, maximum tolerated dose (MTD) analysis, acute toxicity studies and antitumor activity toward BEL-7404 and BEL-7402 models in vivo of complex 6, was similar to Chen reported.
H21T (3.5 pmol; 5’-G [T AG ] -3’), primer TS (18 pmol; tumor tissue were cut into about 1.5 mm3 small pieces, and […]
5’-[…]-3’), KCl (63 mM), then transplanted into the right flank of nude mice. When EGTA (1 mM), MgCl (1.5 mM), Tween-20 (0.005%), the average tumors reach a volume of about 80 mm3, the […]
primer NT (7.5 pmol; 5’-[…]-3’), mice were randomized into 4 groups (n=6), received the […]
TSNT internal control (0.01 amol; 5’-[…] following treatments: (a) control, received saline solvent; […]
-3’), primer (b) complex 6 at doses of 8.0 mg/kg daily (dissolve in […]
Cxext (22.5 pmol; 5’-[…] saline, iv); (c) complex 6 at doses of 4.0 mg/kg daily; […]
[…]-3’), Taq DNA polymerase (2.5 U), and (d) in BEL-7404 model, 5-fluorouracil (5-Fu) as positive telomerase (100 ng). Complexes or/and distilled water control at 20 mg/kg per two days (dissolve in saline, iv); was added ([…]). PCR was performed in an Eppendorf in BEL-7402 model, cisplatin as positive control at 2 mg/ Master cycler equipped with a hot lid and incubated for kg per two days (dissolve in saline, iv).
30.0 min at 30 °C, followed by 92 °C 30 s, 52 °C 30 s, The tumor volumes and body weight was monitored and 72°C 30 s for 30.0 cycles. After amplification, 8.0 every 3 days, The tumor volumes were estimated by […] loading buffer (5×TBE buffer, 0.2% xylene cyanol, measuring the two dimensions of the tumors using caliper and 0.2% bromophenol blue ) were added to the reaction. and calculated by the formula 1 [1, 6, 14]:
An […] of aliquot was loaded onto a nondenaturing V = (length × width2)/2(1) acrylamide gel (19:1, 16%) in 1×TBE buffer and resolved at 200.0 V for 1.0 h. Gels were fixed and then stained with On day 18, the mice were sacrificed, and tumor AgNO3 [8–11]. tissue were dissected out and weighted, tumor growth inhibition rate calculated using formulas 2 and 3 [1, 6,
In order to verify whether complexes 4–6 can TGI (%) = (ΔVc − ΔVt)/ΔVc×100%(2) directly regulate c-myc promoter (Pu27) and the IR(%) = (Wc − Wt)/Wc×100%(3) expression of hTRET in BEL-7404 cells, consequently Where ΔVt = tumor volumefinal −tumor volumeinitial inhibiting the telomerase function, we constructed EGFP for compound treated group, ΔVc=tumor volumefinal − and c-myc gene vectors according to those illustrated tumor volumeinitial for vehicle control group; Wt and Wc in Chalfie, Chen and He previous work. The detailed mean the average tumor weight of complex-treated and procedures for the construct of gene (c-myc and EGFP vehicle controlled group respectively. genes) vectors, and the method of transfection assays REFERENCES have been reported by Chalfie, Chen and He [1, 6, 9, 12,

mice = experiment: In vivo toxicity of multiple doses; settings: monitored another week
Method: We then assessed the in vivo toxicity of multiple doses of complex 6. The mice was treated with complex 6 at 7.8 mg/kg daily or per two day by iv injection up to 7 days, and then monitored for another week.

cis-[PtCl2(S-(–)-FOA)] [complex 6]
discomfort / side effects in diet intake or overall body weight (BEL-7404 xenograft; BEL-7404 and BEL-7402 models, 4 and 8 mg/kg daily): did not display any discomfort or discernible side effects | Body weight (start) (BEL-7404 xenograft; 6 4.0 mg/kg daily iv): 19.5 ± 1.6 g | Tumor volume (start) (BEL-7404 xenograft; 6 4.0 mg/kg daily iv): 75.81±19.95 mm3 | Average tumor weight (mean ± SD g) (BEL-7404 xenograft; 6 4.0 mg/kg daily iv): 0.67 ± 0.08 g | Body weight (end) (BEL-7404 xenograft; 6 4.0 mg/kg daily iv): 17.2 ± 1.7 g | RBW (%) (end) (BEL-7404 xenograft; 6 4.0 mg/kg daily iv): 87.9±4.2% | Tumor volume (end) (BEL-7404 xenograft; 6 4.0 mg/kg daily iv): 782.94±73.43 mm3 | Body weight (start) (BEL-7404 xenograft; 6 8.0 mg/kg daily iv): 19.5 ± 1.2 g | Tumor volume (start) (BEL-7404 xenograft; 6 8.0 mg/kg daily iv): 73.70±16.66 mm3 | Average tumor weight (mean ± SD g) (BEL-7404 xenograft; 6 8.0 mg/kg daily iv): 0.51 ± 0.19 g | Body weight (end) (BEL-7404 xenograft; 6 8.0 mg/kg daily iv): 17.4 ± 0.8 g | RBW (%) (end) (BEL-7404 xenograft; 6 8.0 mg/kg daily iv): 89.2±2.5% | Tumor volume (end) (BEL-7404 xenograft; 6 8.0 mg/kg daily iv): 659.96±253.88 mm3 | safety of multiple doses (mice; 7.8 mg/kg daily iv up to 7 days): safe for mice | body weight change (mice; 7.8 mg/kg daily or per two day iv up to 7 days): Moderate body weight increase
